Reference: patent US11865158B2, “Process and composition matter of nanoparticle formulation for systemic treatment of sepsis” (PURDUE RESEARCH FOUNDATION, priority 2019, dated 2024)

Assays:
[1] = tested on: J774a.1 macrophages; assay: Effect on cell membrane, confocal microscopy with wheat germ agglutinin; type: cell-based; details: eq. to 150 μg/mL PMB, 12 h
Method: Effect of PMB and D-TZP on cell membrane. The effect of D-TZP on J774A.1 cell membrane was monitored by two methods (scanning electron microscopy and confocal microscopy). For scanning electron microscopy, J774A.1 macrophages were plated in a 6-well plate at a density of 3×10^5 cells per well with 3 mL of complete medium. After overnight incubation at 37° C. in a 5% CO2 atmosphere, the cells were treated with either free PMB or D-TZP at a concentration equivalent to 150 μg/mL PMB for 12 h. The cells were centrifuged at 233 relative centrifugal force (rcf) for 3 min. The medium was removed, and 2.5% glutaraldehyde solution was added for fixation overnight at 4° C. The cells were then rinsed three times with water (5 min each) and incubated in 2% Osmium tetroxide for 1 h. After rinsing another three times with water (5 min each), the cells were dehydrated with a series of ethanol gradients (50%, 75%, 95%) for 10 minutes at each step. The dehydrated cells were rinsed with 100% ethanol three times for 10 minutes each time, stored in a 1:1 mixture of HMDS and ethanol in 1:1 for 30 min, and rinsed with 100% HMDS for 30 min twice. After overnight drying, the cells were placed on a carbon tape attached to an aluminum stud and coated with platinum for SEM analysis. The morphology of treated J774a.1 cells then was observed by a FEI NOVA NanoSEM scanning electron microscope (SEM). […]

[2] = tested on: J774a.1 macrophages; assay: Cytotoxicity by propidium iodide staining and flow cytometry; type: cell-based; details: equivalent to 50-150 μg/mL PMB, 24 h
Method: (§1) As a cationic polypeptide, PMB is known to be effective in neutralizing LPS as early as in 1967, but its systemic application is hampered by dose-limiting nephro- and neurotoxicity. PMB manifests the toxicity via the increased membrane permeability, resulting in increased influx of ions and water and subsequent cell swelling and lysis. To test if the toxicity can be reduced by supplying PMB as a NP-bound form, THP-1 monocytes or J774a.1 macrophages were incubated with D-TZP or free PMB at a concentration equivalent to 50-150 μg/mL PMB for 24 h, stained with propidium iodide (PI), which penetrates damaged cell membrane but not intact membrane, and analyzed with flow cytometry. […] Substantial reduction of membrane damage is attributable to the surface-bound ZWC, which provides a negatively charged cloud beyond the remit of PMB due to the large size, attenuating direct exposure of PMB to cell membrane.
(§2) Cytotoxicity of PMB and D-TZP. Cytotoxic concentration range of free PMB was first determined with THP1-XBlue-MD2-CD14 cells by the MTT assay. […] The PI fluorescence of 10,000 cells was measured with the BD Accuri C6 flow cytometer (BD Biosciences, San Jose, CA) via the FL-2 detector. Nanoparticles and cell debris were excluded by gating, but all cell population (dead or alive) was analyzed. […]

[3] = tested on: THP-1 monocytes; assay: as above; type: cell-based, human; details: equivalent to 50-150 μg/mL PMB, 24 h
Method: as §1, §2

[4] = tested on: LPS-induced NF-kB/AP-1 activation in THP1-XBlue-MD2-CD14 cells; assay: In vitro anti-LPS activity, SEAP reporter assay, LPS pretreated and supernatant added to cells; type: cell-based, human; details: 10 ng/mL LPS, equivalent to PMB 9.5-18.9 μg/mL
Method: To investigate if D-TZP can neutralize LPS, a reporter cell line responding to LPS was incubated with LPS and free PMB or D-TZP's (with different amounts of PMB). THP1-XBlue-MD2-CD14, derived from the human monocytic THP-1 cell line, overexpresses MD2 and CD14 to amplify the response to TLR4 agonist LPS. Color change of the Quanti-Blue reagent (NF-kB/AP-1-inducible secreted embryonic alkaline phosphatase (SEAP) reporter protein) reflects NF-kB/AP-1 activation due to LPS. LPS-induced SEAP production was measured at 620 nm. The reporter cells with 10 ng/mL of LPS expressed a high level of SEAP as compared to non-challenged cells. […] A supernatant was obtained from each mixture to separate unbound LPS and added to THP1-XBlue-MD2-CD14 cells.
In vitro anti-LPS activity. Five microliters of LPS ([…]) was mixed with 15 μL of free PMB, D-TZP, or TZP at different concentrations in a flat-bottom 96-well plate. THP1-XBlue-MD2-CD14 cell suspension (10^5 cells in 180 μL) was then added to the mixtures. After 24 h incubation, cells were centrifugated at 233 rcf for 5 min. Twenty microliters of the cell medium was mixed with the Quanti-Blue reagent. After 2 h incubation, the color was measured at 620 nm by a Spectra Max M3 microplate reader (Molecular Devices, Sunnyvale, CA). […] The medium was analyzed in the same manner as above.

Question: Which results are given for polymyxin B [PMB]?
Answer: cell membrane staining with wheat germ agglutinin [1]: significant membrane damage; PI fluorescence (membrane damage) [2]: dose-dependent PI fluorescence signal; PI fluorescence (membrane damage) [3]: dose-dependent PI fluorescence signal; SEAP production, LPS pretreated for 1 h, supernatant added to cells [4]: significant reduction in SEAP production
